The source of these data is patent publication US8333966B2, “CD37 immunotherapeutics and uses thereof” (Emergent Product Development Seattle, LLC, priority 2008, dated 2012).

For one data set, the target named is T1, CD37 on Ramos cells (Homo sapiens, UniProt P11049).
T1 construct: endogenous in cells; host or cells: Ramos cells
T1 sequence (P11049 1-281): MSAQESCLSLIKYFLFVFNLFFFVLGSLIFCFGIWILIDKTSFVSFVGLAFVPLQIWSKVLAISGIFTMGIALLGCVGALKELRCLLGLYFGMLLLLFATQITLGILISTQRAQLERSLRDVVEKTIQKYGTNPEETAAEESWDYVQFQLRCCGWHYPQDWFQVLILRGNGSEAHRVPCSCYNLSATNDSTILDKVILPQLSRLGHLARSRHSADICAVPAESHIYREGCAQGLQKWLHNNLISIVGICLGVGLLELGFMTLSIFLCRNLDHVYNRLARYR
Put plainly: FMAT competition assay against FMAT Blue labeled CAS-006 for binding to Ramos cells. An excerpt:
A competition assay was used to compare the binding affinity of different anti-CD37 specific small modular immunopharmaceutical (SMIP) molecules to CD-37 found on Ramos cells (a B-lymphoblastoid cell line derived from a Burkitt lymphoma). An SEC purified chimeric anti-CD37 SMIP molecule (CAS-006, SEQ ID NO:247) was labeled with the FMAT Blue® fluorescence dye (Applied Biosystems) and used as the standard to compete with purified unlabeled chimeric anti-CD37 SMIP molecule (positive control) and purified unlabeled humanized anti-CD37 SMIP test molecules. […] The plates were incubated at room temperature for 30 min and read on an 8200 Cellular Detection System (Applied Biosystems) gated for middle cell size and low signal.
A competition assay as described in Example 4 was used to compare the binding affinity of different mouse-human hybrid anti-CD37 SMIP molecules compared to CAS-024 binding to Ramos cells. An SEC purified chimeric anti-CD37 SMIP molecule (CAS-006, SEQ ID NO:247) was labeled with the FMAT Blue® fluorescence dye (Applied Biosystems) and used as the standard to compete with purified unlabeled chimeric anti-CD37 SMIP molecule (CAS-006, positive control) and purified unlabeled humanized anti-CD37 SMIP test molecules—CAS-002 (SEQ ID NO:48), CAS-003 (SEQ ID NO:52), CAS-014 (SEQ ID NO:251), CAS-017 (SEQ ID NO:252), and CAS-024 (SEQ ID NO:253).

In data set [1] the test system is human tumor (DOHH2) xenograft. The data set is described as follows: Dose response in established subcutaneous DOHH2 xenograft model in SCID mice. Format: in vivo. The procedure: Mice were monitored daily by visual inspection. […] Tumor volumes were calculated as described above.
Data set [2] in a line: SMIP expression in transfected HEK293 cells, day 7 supernatants titered with Protein A sensor. The conditions noted are these: supernatants day 7. An excerpt:
CAS-024 and other CD37-specific binding SMIP molecules were produced by recombinant DNA technology and transfected into HEK293 cells for 7 days. Cell culture supernatants were harvested on day 7 and titered using Octec Q Protein A sensor.

Data set [3] relates to human tumor (DOHH2) xenograft. The data set is described as follows: Single agent efficacy in established DOHH2 xenograft model in SCID mice. Type of data set: in vivo. The conditions noted are these: for Death (other than for Tumor Size Sacrifice) / Median Survival Time: 200 μg IP days 0, 4, 8, cumulative 600 μg; for mean tumor volume compared with human IgG treated group: day 4 through day 11. The procedure: Mice were monitored daily by visual inspection. […] Tumor volumes were calculated as described above. Tumor volumes on the last day that all mice were alive in each group were also expressed in terms of tumor volumes relative to day 0, using the formula: Relative tumor volume on day of interest=(volume on day of interest−volume on day 0)volume on day 0
For orientation: In xenograft studies the graft and the host belong to different species.

Data set [4] is described as follows: SMIP expression in transfected CHO cells, supernatants titered with Protein A sensor. Details: species or system Chinese Hamster Ovary (CHO). The conditions noted are these: shake flasks, culture supernatants. The procedure: CAS-024 and other CD37-specific binding SMIP molecules were cloned into a Chinese Hamster Ovary (CHO) mammalian cell expression system. Transfected CHO cells that produced the SMIP molecules were cultured in shake flasks and harvested cell culture supernatants were titered using Octec Q Protein A sensor.

Data set [5] relates to DOHH2 human tumor xenografts. The following applies: for Median Survival Time: CAS024 10 μg IV days 0, 4, 8, Bendamustine 10 mg/kg IP days 0, 2, 4, 7, 9, alone or combined; for clinical signs of toxicity: CAS024 10 μg IV, Bendamustine 10 mg/kg IP. The method, then:
Establishment of tumor xenografts and sorting into treatment groups. […] The tumor-bearing mice were sorted into five groups with equivalent mean tumor volumes (n=15 per group; 3 cages of 5 mice for each group).
In vivo treatment. Groups of mice were treated with an injection of 0.2 mL of PBS containing 10 μg huIgG (days 0, 4, 8 IV), 10 μg CAS024 (days 0, 4, 8 IV), 10 mg/kg Bendamustine (0, 2, 4, 7, 9 IP), or 10 μg CAS024 (days 0, 4, 8 IV) AND 10 mg/kg Bendamustine (0, 2, 4, 7, 9 IP).
Monitoring and endpoints. Mice were monitored daily by visual inspection. […] Tumor volumes were calculated as described above.

In the next data set the target is T2, CD37 on BJAB cells (Homo sapiens, UniProt P11049).
T2 construct: endogenous in cells; host or cells: BJAB cells
T2 sequence (P11049 1-281): T1 sequence (P11049 1-281)
Put plainly: Competitive binding / cross blocking of FITC-conjugated anti-CD37 reagents on BJAB cells. The following applies: unlabeled blocking reagent. The method, then:
FITC labeled antibody conjugates were titrated from 10 ng/mL to 10 μg/mL in an initial binding study to determine the optimal amount to use in the blocking studies. The level chosen was just below saturating amounts, and was kept constant in the subsequent assays, while levels of blocking antibody were increased over a 10-fold range. Data were plotted as percent of maximal binding versus concentration of blocking antibody, so that higher levels indicate less efficient blocking, while lower levels indicate more efficient blocking activity.
For competitive binding assays, 2.5×10^5 BJAB cells were incubated in 96-well V-bottom plates in staining media (PBS with 2% mouse sera) with the FITC-conjugated anti-CD37 mAbs at 1.25 μg/mL in the presence of unconjugated anti-CD37 MAb at the indicated concentrations (2.5, 1.25, 0.6, or 0.3 μg/ml) or staining media for 45 minutes on ice in the dark. Blocking antibodies and FITC labeled antibody conjugates were added to reactions prior to addition of cells. The cells were then washed […] with PBS and fixed with 1% paraformaldehyde (USB, Cleveland, Ohio). The treated cells were analyzed by flow cytometry using a FACsCalibur instrument and CellQuest software (BD Biosciences, San Jose, Calif.). […]

Where [6] appears, read: 3 μg IP days 0, 4, 8, cumulative 9 μg.
The mark [7] stands for this setting: 10 μg IP days 0, 4, 8, cumulative 30 μg.
Where [8] appears, read: 30 μg IP days 0, 4, 8, cumulative 90 μg.
[9] abbreviates: 100 μg IP days 0, 4, 8, cumulative 300 μg.

Entries after “also recorded” stand apart in the source; their conditions may differ. Marks after values point to notes of the source that are not given here.

Regarding “G28-1 VH (M99F, Y102S)-VL (T25A) scFv (SSC-P) H WCH2 WCH3 [CAS-024]”, the “greater affinity for CD37 than humanized VLVH SMIP molecules with 16 amino acid linker” value at CD37 on Ramos cells (Ramos cells) was at most 4 fold. Further, the “affinity for CD37 compared with parent chimeric CAS-006” value at CD37 on Ramos cells (competition with labeled CAS-006, Ramos cells) was “substantially the same affinity; also recorded: same binding affinity”. Moreover, the “Death (Not Due to Large Tumor Volume)” value in data set [1] (setting [6]) was 0/14; in data set [1] (setting [7]), 0/14; in data set [1] (setting [8]), 0/14; in data set [1] (setting [9]) it was 1/14^h; in data set [1] (200 μg IP days 0, 4, 8, cumulative 600 μg) it was 0/14. The “Median Survival Time” value was 19 days in data set [1] (setting [6]); 28 days in data set [1] (setting [7]); 35 days in data set [1] (setting [8]); “Undefined” in data set [1] (setting [9]); “Undefined^d, e” in data set [3]; 17^b Days in data set [5]. The “effect on the growth of DOHH2 tumors” value in data set [1] (3 to 200 μg IP days 0, 4, 8) was “dose-dependent inhibitory effect”. Moreover, the “Protein Titer” value in data set [2] worked out at 12.7 µg/mL. The “Death (other than for Tumor Size Sacrifice)” value in data set [3] was 1/15^f. Besides, the “mean tumor volume compared with human IgG treated group” value in data set [3] is given as “significantly lower”. Besides, the “Protein Titer Range” value in data set [4] was in the range of 500 to 650 µg/mL. The “clinical signs of toxicity” value in data set [5] is given as “No clinical signs of toxicity”.

On to “Rituxan: anti-CD20 treatment used as single agent comparator [reference compound]”, for which, in data set [3], the “Death (other than for Tumor Size Sacrifice)” value is 0/15, the “Median Survival Time” value turned out to be 43 days and the “mean tumor volume compared with human IgG treated group” value is reported as “significantly lower”.

Turning to `Cn1c(CCCC(=O)O)nc2cc(N(CCCl)CCCl)ccc21` [Bendamustine, 4-[5-[Bis(2-chloroethyl)amino]-1-methylbenzimidazol-2-yl]butanoic acid, reference compound], in data set [5], the “Median Survival Time” value worked out at 17 days; the “clinical signs of toxicity” value was “scruffy coats and diarrhea”.

On to “CAS-006: chimeric anti-CD37 SMIP protein (mVLmVH) with variable regions from mouse mAb G28-1, SEQ ID NO:247”, for which the “Protein Titer” value in data set [2] came to 9.3 µg/mL. For the same compound, the “blocking activity (inhibition of binding of FITC-conjugated anti-CD37)” value in the data set with CD37 on BJAB cells was “highest level of blocking activity”.
